Source: PMC8583417, “Evaluation of the Antimicrobial Efficacy of N-Acetyl-L-Cysteine, Rhamnolipids, and Usnic Acid—Novel Approaches to Fight Food-Borne Pathogens” (International Journal of Molecular Sciences, 2021)

Key:
L. monocytogenes 149 [1] = assay: MIC for biofilm formation (crystal violet staining); assay type: cell-based, Listeria monocytogenes; conditions: ≥80% prevention, 24 h
Description: (§1) Ten concentrations of NAC, RLs, and UA were tested to determine the minimum inhibitory concentration for planktonic growth, and subsequently, the six highest concentrations were applied on preformed biofilms to evaluate the biofilm eradication ability of the compounds. MIC was defined as the lowest substance concentration able to inhibit at least 80% of microbial growth (MICPC80 for planktonic cells, MICBC80 for further growth of biofilm cells), inhibit 80% of metabolic activity (MICBM80 for biofilm metabolic activity, MICMPB80 for metabolic activity of preformed biofilm), prevent biofilm formation by at least 80% (MICBF80 for biofilm formation), or reduce a preformed biofilm by at least 80% (MICBR80 for biofilm reduction). The results of MICs are summarized in Table 1 (planktonic cells) and Table 2 (biofilm-associated cells).
(§2) The determination of MICs was performed according to Chlumsky et al.. Briefly, 96-well flat-bottomed microtiter plates were inoculated with 75 µL (for biofilm formation) or 100 µL (for preformed biofilm) of bacterial suspension (A625nm 0.08 to 0.1) in technical triplicates and were then carefully mixed with the dilution series of the test substances (24 h cultivation at 25 °C for S. Infantis, 37 °C for other strains) or were directly cultivated to preform biofilms (18 h). For a positive control of bacterial growth, the inoculum was mixed with a pure sterile medium. […] To evaluate planktonic cells growth (MICPC80) and further growth of biofilm cells (MICBC80), the optical density of the content of the microtiter plates was measured spectrophotometrically at 625 nm before and after 24 h (for biofilm formation) of cultivation or before and after additional 20 h incubation with the tested compound (for preformed biofilm). […] To evaluate the inhibition of biofilm formation (MICBF80) and reduction in preformed biofilms (MICBR80), biomass was quantified using crystal violet staining, and its metabolic activity (MICBM80 and MICMPB80) was estimated by using the MTT (thiazyl tetrazolium bromide, Sigma-Aldrich, USA) reduction assay, both measured spectrophotometrically at 595 nm.
(§3) All inhibitions were calculated using the formula of Chlumsky et al. below (Equation (1)):(1) A625(595)nm inhibition (%)=A625(595)nm (control) – A625(595)nm(natural substance)/A625(595)nm (control)× 100 where A625(595)nm (control) is the absorbance of bacterial suspension/biofilm itself, and A625(595)nm(natural substance) is the absorbance of the bacterial suspension/biofilm with the added natural substance (NAC, RLs, and UA).
(§4) When the minimum inhibitory concentration could not be determined, the MIC was established as >the highest tested concentration for NAC, RLs, and UA.

L. monocytogenes 164 [2] = assay: as above; assay type: cell-based, Listeria monocytogenes; conditions: ≥80% prevention, 24 h
Description: as §1, §2, §3, §4

L. monocytogenes 149 [3] = assay: MIC for further growth of biofilm cells, preformed biofilm (A625nm); assay type: cell-based, Listeria monocytogenes; conditions: ≥80% inhibition, 18 h preformed biofilm, 20 h with substance
Description: as §1, §2, §3, §4

L. monocytogenes 164 [4] = assay: as above; assay type: cell-based, Listeria monocytogenes; conditions: ≥80% inhibition, 18 h preformed biofilm, 20 h with substance
Description: as §1, §2, §3, §4

[5] = system: S. Enteritidis ATCC 13076; assay: MIC for reduction of preformed biofilm (crystal violet staining); assay type: cell-based, Salmonella enterica Enteritidis; conditions: for MICBR80: ≥80% reduction of preformed biofilm (18 h), 20 h with substance
Description: as §1
The determination of MICs was performed according to Chlumsky et al.. […] To evaluate planktonic cells growth (MICPC80) and further growth of biofilm cells (MICBC80), the optical density of the content of the microtiter plates was measured spectrophotometrically at 625 nm before and after 24 h (for biofilm formation) of cultivation or before and after additional 20 h incubation with the tested compound (for preformed biofilm). […] To evaluate the inhibition of biofilm formation (MICBF80) and reduction in preformed biofilms (MICBR80), biomass was quantified using crystal violet staining, and its metabolic activity (MICBM80 and MICMPB80) was estimated by using the MTT (thiazyl tetrazolium bromide, Sigma-Aldrich, USA) reduction assay, both measured spectrophotometrically at 595 nm.
as §3, with “UA). […]” for “UA).”

S. aureus 1241 = assay: CLSM analysis, biofilm removal (preformed biofilm); assay type: cell-based, Staphylococcus aureus; conditions: 20 h exposure, mean ± SD; for Thickness (µm) MICBM80: substance at its MIC; for Thickness (µm) subCBM80: substance at subinhibitory concentration
Description: (§5) Biofilm prevention and removal analyses were performed using previously determined minimum inhibitory and subinhibitory concentrations for metabolic activity (MICBM80, subCBM80; MICMPB80, subCMPB80) of NAC, RLs, and UA specific for each tested strain. Selected concentrations were used to evaluate the inhibition of biofilm formation (biofilm prevention) and the reduction in previously formed biofilms (biofilm removal) for the same set of microorganisms, with the exception of S. Infantis, which was excluded from the analysis due to its inability to form biofilm in the selected microtiter plate. Biofilm prevention and removal were observed using CLSM with specific staining to distinguish between live and membrane-compromised cells. Images were analyzed to evaluate (i). the total volume of the biomass, (ii). ratios of live and membrane-compromised cells, and (iii). to calculate biofilm volume reduction for individual organisms after the respective treatment types. The total biofilm volume was normalized by the area of the well and expressed as an average biofilm thickness. Complete data are provided in Supplementary Materials (Tables S1–S8).
(§6) At first, bacterial suspensions were cultivated in microtiter plates to produce overnight biofilms (18 h). […] cells were then washed out, and the remaining biofilms were further cultivated for an additional 20 h with selected compounds. Following biofilm cultivation, biomass was observed using CLSM with live/membrane-compromised cell staining. Biomass images from biofilm removal treatments were similar to results from biofilm prevention, where biomass was highly diversified across the bacterial species and strains. Visually, biomass images were fairly consistent within the quadruplicates for each tested organism. Non-treated biofilms of S. aureus contained consistent biomass spread across the well (S. aureus 816) or grown around the edges (S. aureus 1241). […] PI staining identified membrane-compromised cells spread across S. aureus 816 biomass and incorporated in the edge of biomass and/or in the central part of the well (Figure 4B,C). […] Membrane-compromised cells appeared contained around the edges (S. aureus 1241), disturbed across the well (in both strains of L. monocytogenes), or in separated biomass in the central part of the well (in both strains of E. coli when treated with the subinhibitory concentration of RLs) (Figure 4D,E).
(§7) For both inhibition and reduction of biofilms, overnight cultures from BHI were diluted in TSB + 1% Glc to reach an absorbance of 0.08 to 0.1 at 625 nm. The inoculum (150 µL) was transferred into wells of the 96-well flat-bottomed Ibidiμ-Plate (Ibidi, Gräfelfing, Germany) and mixed with 150 µL of each of the three tested substances in technical quadruplicates, followed by incubation at 37 °C for 24 h. Simultaneously, the prepared bacterial suspensions were inoculated to an additional microtiter plate (200 µL) and allowed to form biofilm overnight (18 h at 37 °C). After the incubation, the content of the well was drained off, and 200 µL of each of the three tested substances was added to the plate, which was then incubated for an additional 20 h. The used concentrations of the substances represented the subinhibitory and minimum inhibitory concentrations for metabolic activity (subCBM80, MICBM80; subCMPB80, MICMPB80). Both setups contained a positive control of the bacterial growth (inoculum mixed with sterile TSB + 1% Glc medium) and a control monitoring microbial contamination (sterile medium). Non-treated wells were used as a positive control for comparison between non-treated and treated biofilm mass.
(§8) Prior to the imaging, the wells were stained with the LIVE/DEAD® BacLight™ Bacterial Viability Kit (Thermo Fisher Scientific, MA, USA) following the manufacturer’s guidelines and Drago et al.. […]

S. aureus 816 = assay: CLSM analysis, biofilm removal (preformed biofilm); assay type: cell-based, Staphylococcus aureus; conditions: for proportion of membrane-compromised cells: 20 h; for Thickness (µm) subCBM80: substance at subinhibitory concentration
Description: as §5, §6, §7, §8

[6] = preformed biofilm, 20 h exposure, mean ± SD

SMILES	MICBF80 (L. monocytogenes 149 [1]) [µg/mL]	MICBF80 (L. monocytogenes 164 [2]) [µg/mL]	MICBC80 (L. monocytogenes 149 [3]) [µg/mL]	MICBC80 (L. monocytogenes 164 [4]) [µg/mL]	MICBR80 [5]	Thickness (µm) MICBM80 (S. aureus 1241) [µm]	Thickness (µm) subCBM80 (S. aureus 1241) [µm]	proportion of membrane-compromised cells (S. aureus 816; MIC)	Thickness (µm) MICBM80 (S. aureus 816; preformed biofilm, 20 h exposure, substance at its MIC, mean ± SD) [µm]	Thickness (µm) subCBM80 (S. aureus 816; [6]) [µm]	maximal achieved inhibition (MICBR80 not reached), biofilm reduction ([5]; preformed biofilm, within tested concentrations) [%]	proportion of membrane-compromised cells (S. aureus 816; subinhibitory concentration)
CC(=O)N[C@@H](CS)C(=O)O [NAC, N-Acetyl-L-cysteine]	6250	6250	3130	3130	12,500 µg/mL	253 ± 44.4	266 ± 37.9	up to 20%	156 ± 80.4	247 ± 64.7		
CC(=O)c1c(O)c(C)c(O)c2c1OC1=CC(=O)C(C(C)=O)C(=O)C12C (single isomer, unassigned; (+)) [UA, (+)-usnic acid]	0.98	1.96	1.96	1.96	> 31.3 µg/mL	210 ± 32.5	251 ± 15.7			152 ± 68.6	0	up to 40%
